Measured values published in patent US20130310387A1, “Monocyclic Heteroaryl Cycloalkyldiamine Derivatives” (NOVARTIS AG, priority 2012, published 2013).

Columns and labels:
[1] = tested on: phosphorylation of BLNK in Ramos B cells; test: Anti IgM-induced phosphorylation of BLNK in Ramos B cells; assay type: cell-based; conditions: Homo sapiens, 0.25 h, anti IgM 15 min, flow cytometry anti-BLNK (pY84)
Description: Anti IgM-induced phosphorylation of BLNK (BLNK=B cell linker (SLP65=SH2 domain containing leukocyte protein of 65 kDa)) in Ramos B cells: Ramos B cells in a volume of 25 μl were incubated with 25 μl of the compound solution at 2-fold the desired final concentration for 30 min. at 37° C. Then 50 μL anti IgM was added, mixed and incubated for 15 min. at 37° C. In each experiment 8-fold serial dilutions of compounds were tested. The stimulation was stopped by addition of 100 μL/well of PFA (para formaldehyde) I PBS (phosphate buffered saline) (final conc. 2% PFA) for fixation and incubated for 15 min. at 37° C., then centrifuged at 1300 rpm for 3 min and permeabilized by resuspending the cell pellet in 100 μL methanol 90% and further incubated for 30 min at 4° C. The cells were then washed and phosphoproteins were detected by flow cytometry using fluorescently labeled anti-BLNK ([…]) (BD Biosciences).

[2] = tested on: SLP-76 phosphorylation in human whole blood monocytes; test: FcR stimulation-induced SLP-76 phosphorylation in human whole blood monocytes; assay type: cell-based; conditions: Monocyte, 5 min, anti CD32 stimulation 5 min, flow cytometry, read-out: Fc Recepor stimulation induced SLP-76 phosphorylation in human whole blood monocytes, IC50
Source text: After lysis of erythrocytes and washings, the cell pellet was permeabilized with ice-cold methanol 90%. The permeabilized cells were washed and stained with anti CD14 (eBioscience) to detect monocytes and anti P-SLP76 ([…]) (BD Biosciences) and quantified by flow cytometry.

[3] = molecular target: Syk (2-635) (KSYK_HUMAN, P43405) (Homo sapiens, UniProt P43405); test: Syk enzyme assay (chip based microfluidic mobility shift assay); assay type: biochemical; conditions: 4 μM ATP, 4 nM Syk, 60 minutes at 30° C.
Description: A number of compounds of the present invention were assayed in a chip based microfluidic mobilitiy shift assay. All assays were performed in 384 well microtiter plates. Each assay plate contained 8-point serial dilutions for 40 test compounds, as well as four 8-point serial dilutions of staurosporine as reference compound, plus 16 high- and 16 low controls. Liquid handling and incubation steps were done on a Thermo CatX workstation equipped with a Innovadyne Nanodrop Express. Between pipetting steps, tips were cleaned in wash cycles using wash buffer. The assay plates were prepared by addition of 50 nl per well of compound solution in 90% DMSO. […] Kinase reactions were incubated at 30° C. for 60 minutes and subsequently terminated by addition of 16 μl per well of stop solution (100 mM HEPES pH 7.5, 5% DMSO, 0.1% Caliper coating reagent, 10 mM EDTA, and 0.015% Brij35). Plates with terminated kinase reactions were transferred to the Caliper LC3000 workstations for reading. Phosphorylated and unphosphorylated peptides were separated using the Caliper microfluidic mobility shift technology. Briefly, samples from terminated kinase reactions were applied to the chip. Analytes are transported through the chip by constant buffer flow and the migration of the substrate peptide is monitored by the fluorescence signal of its label. Phosphorylated peptide (product) and unphosphorylated peptide (substrate) are separated in an electric field by their charge/mass ratio. Kinase activities were calculated from the amounts of formed phospho-peptide. […] values were determined from percent inhibition values at different compound concentrations by non-linear regression analysis.
Test compounds were dissolved in DMSO (10 mM) and transferred into 1.4 mL flat bottom or V-shaped Matrix tubes carrying a unique 2D matrix. The stock solutions were stored at […] if not used immediately. For the test procedure the vials were defrosted and identified by a scanner whereby a working sheet was generated that guided the subsequent working steps.
Compound dilutions were made in 96 well plates. This format enabled the assay of maximally 40 individual test compounds at 8 concentrations (single points) including 4 reference compounds. The dilution protocol included the production of “pre-dilution plates”, “master plates” and “assay plates”.
96 polypropylene well plates were used as pre-dilution plates. A total of 4 pre-dilution plates were prepared including 10 test compounds each on the plate positions A1-A10, one standard compound at A11 and one DMSO control at A12. All dilution steps were done on a HamiltonSTAR robot.
30 μL of individual compound dilutions including standard compound and controls of the 4 “pre-dilution plates” were transferred into a 384 “master plate” including the following concentrations 1′810, 362, 72.5, […], 14.5, 2.9, 0.58 and 0.12 μM, respectively in 90% of DMSO.
Identical “assay plates” were then prepared by pipetting […] each of compound dilutions of the “master plates” into 384-well “assay plates” by means of a HummingBird 384-channel dispenser. These plates were used directly for the assay which was performed in a total volume of 9.05 μL. This led to a final compound concentration of 10, 2.0, 0.4, 0.08, 0.016, 0.0032, 0.00064 and 0.000128 μM and a final DMSO concentration of 0.5% in the assay.

hERG channel = molecular target: T1, hERG channel (Homo sapiens, UniProt Q12809); test: Inhibition of the hERG channel (manual patch clamp assay); assay type: cell-based; conditions: HEK293 cells stably transfected with hERG cDNA, whole-cell patch clamp, tail current
T1 construct: host or cells: HEK293
Source text: The hERG patch clamp assay was done according to standard procedures used in Genetic Toxicology and Safety Pharmacology, based on recommendations and descriptions of methods in the literature, and according to current guidelines (ICH S7B, The non clinical evaluation of the potential for delayed ventricular repolarization (QT interval prolongation) by human pharmaceuticals, 2005). The purpose of the study is to assess the effect of the test item ABC123 on tail current recorded from HEK293 cells stably transfected with hERG cDNA. The HEK293 cells, which have been stably transfected with hERG cDNA, are a model considered to be suitable for this purpose (Zhou et al., 1998). Repolarisation of cardiac ventricular myocytes is mainly due to outward potassium currents. The most important current in humans is the delayed rectifier potassium current, IK, which has both rapidly and slowly activating components (IKr and IKs) (Sanguinetti and Jurkiewicz, 1990). The human ether-a-gogo-related-gene (hERG) encodes the major protein underlying IKr. Thus, inhibition of hERG potassium channels may lead to delayed cardiac repolarisation (Sanguinetti et al., 1995). Prolongation of cardiac repolarisation is a side effect that can be associated with some drug therapies. This proarrhythmic alteration is characterised by a prolongation of the QT interval in the surface electrocardiogram and is of particular concern because it may lead to the development of polymorphic ventricular arrhythmias like torsade de pointes (for review see: Vandenberg, Walker and Campbell, 2001). […] HERG HEK (HEK293 cells stably transfected with hERG cDNA) obtained from the University of Wisconsin were used. For the experiments the cells were plated onto sterile Thermanox plastic coverslips (Nalge Nunc International) in 6-well plates. The dishes were stored in a humidified, gassed incubator. The coverslips with cells were transferred to the recording chamber and continuously superfused (at approximately 1-2 ml/min) with vehicle. The temperature of the vehicle in the bath chamber was regulated by temperature controllers to 35° C.±2.0° C. hERG currents were measured in the whole-cell patch-clamp configuration. Once a stable patch clamp configuration was achieved, recording commenced in voltage-clamp mode, with the cell initially clamped at -75 mV. hERG current was observed and recorded if a stable hERG tail current response could be induced. […] The hERG HEK293 cells were treated approximately 9 min with the test item. The following voltage protocol was applied to induce hERG currents: The step from -75 mV to +10 mV activates an outward current (i.e. current flows out of the cell) and the step from +10 mV to -40 mV produces the tail current (the tail current represents the time taken for the current to turn off). […] The leak current was recorded and subtracted by a P/3n pulse between the voltage pulses (0.1 Hz).

T1 sequence (Q12809 whole entry): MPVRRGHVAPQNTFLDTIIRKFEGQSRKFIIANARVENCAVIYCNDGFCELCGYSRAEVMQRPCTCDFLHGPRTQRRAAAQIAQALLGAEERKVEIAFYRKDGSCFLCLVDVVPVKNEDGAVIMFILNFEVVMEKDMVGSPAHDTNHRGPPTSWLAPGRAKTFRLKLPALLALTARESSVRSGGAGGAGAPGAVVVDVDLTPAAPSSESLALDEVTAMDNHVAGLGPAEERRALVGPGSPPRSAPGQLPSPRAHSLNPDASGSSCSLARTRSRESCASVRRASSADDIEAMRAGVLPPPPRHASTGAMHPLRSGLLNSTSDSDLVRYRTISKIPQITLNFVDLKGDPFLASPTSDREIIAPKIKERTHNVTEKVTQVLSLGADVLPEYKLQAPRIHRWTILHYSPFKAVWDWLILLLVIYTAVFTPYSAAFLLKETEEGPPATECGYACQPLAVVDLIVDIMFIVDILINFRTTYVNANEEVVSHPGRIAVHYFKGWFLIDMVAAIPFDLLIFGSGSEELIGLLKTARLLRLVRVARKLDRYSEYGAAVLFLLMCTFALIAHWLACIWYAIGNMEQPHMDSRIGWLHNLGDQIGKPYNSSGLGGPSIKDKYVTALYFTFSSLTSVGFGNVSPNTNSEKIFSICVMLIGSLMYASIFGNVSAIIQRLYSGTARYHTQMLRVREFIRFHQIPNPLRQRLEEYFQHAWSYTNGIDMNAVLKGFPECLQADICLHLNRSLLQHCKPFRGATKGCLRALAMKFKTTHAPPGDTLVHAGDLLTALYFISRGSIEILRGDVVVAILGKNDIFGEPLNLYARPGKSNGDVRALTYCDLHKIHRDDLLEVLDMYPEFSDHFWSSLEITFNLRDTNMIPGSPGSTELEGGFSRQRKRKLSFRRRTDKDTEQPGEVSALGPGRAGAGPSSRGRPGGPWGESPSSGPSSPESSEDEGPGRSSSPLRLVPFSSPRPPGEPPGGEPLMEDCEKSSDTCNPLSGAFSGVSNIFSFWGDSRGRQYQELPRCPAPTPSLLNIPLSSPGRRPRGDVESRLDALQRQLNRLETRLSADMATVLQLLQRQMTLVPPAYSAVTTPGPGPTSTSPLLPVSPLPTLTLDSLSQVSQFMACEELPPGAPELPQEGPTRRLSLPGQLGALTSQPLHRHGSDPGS

Compound | IC50 [1] | IC50 [2] | IC50 [3] | inhibition at 9 min, 3 µM (hERG channel; at 3 uM) | inhibition at 9 min, 10 µM (hERG channel; at 10 uM) | inhibition at 9 min, 30 µM (hERG channel; at 30 uM)
Cc1c[nH]c2c(Nc3nc(N[C@@H]4CCCC[C@@H]4N)nnc3C(N)=O)cc(F)cc12 [Example 1.2, 3-((1R,2S)-2-Amino-cyclohexylamino)-5-(5-fluoro-3-methyl-1H-indol-7-ylamino)-[1,2,4]triazine-6-carboxylic acid amide] | 63 nM | 491 nM | 0.8 nM |  |  | 
Cc1c[nH]c2c(Nc3nc(N[C@@H]4CCCC[C@@H]4N)nnc3C(N)=O)cccc12 [Example 1.3, 3-((1R,2S)-2-Amino-cyclohexylamino)-5-(3-methyl-1H-indol-7-ylamino)-[1,2,4]triazine-6-carboxylic acid amide] | 72 nM | 447 nM | 3.5 nM | 24 ± 3% | 37 ± 6% | 74 ± 6%
NC(=O)c1nnc(N[C@@H]2CCCC[C@@H]2N)nc1Nc1cccc2[nH]ccc12 [Example 1.4, 3-((1R,2S)-2-Amino-cyclohexylamino)-5-(1H-indol-4-ylamino)-[1,2,4]triazine-6-carboxylic acid amide] | 14 nM | 177 nM | 1 nM |  |  | 
Cn1ncc2c(Nc3nc(N[C@@H]4CCCC[C@@H]4N)nnc3C(N)=O)cccc21 [Example 2.1, 3-((1R,2S)-2-Amino-cyclohexylamino)-5-(1-methyl-1H-indazol-4-ylamino)-[1,2,4]triazine-6-carboxylic acid amide] | 121 nM | 509 nM | 12 nM |  |  | 
Cn1cc2c(Nc3nc(N[C@@H]4CCCC[C@@H]4N)nnc3C(N)=O)cccc2n1 [Example 2.2, 3-((1R,2S)-2-Amino-cyclohexylamino)-5-(2-methyl-2H-indazol-4-ylamino)-[1,2,4]triazine-6-carboxylic acid amide] | 58 nM | 394 nM |  |  |  | 
NC(=O)c1nnc(N[C@@H]2CCCC[C@@H]2N)nc1Nc1cccc2c(Cl)c[nH]c12 [Example 2.3, 3-((1R,2S)-2-Amino-cyclohexylamino)-5-(3-chloro-1H-indol-7-ylamino)-[1,2,4]triazine-6-carboxylic acid amide] | 393 nM |  | 11 nM |  |  | 
N#Cc1c[nH]c2c(Nc3nc(N[C@@H]4CCCC[C@@H]4N)nnc3C(N)=O)cccc12 [Example 2.4, 3-((1R,2S)-2-Amino-cyclohexylamino)-5-(3-cyano-1H-indol-7-ylamino)-[1,2,4]triazine-6-carboxylic acid amide] | 890 nM |  | 86 nM |  |  | 
NC(=O)c1nnc(N[C@@H]2CCCC[C@@H]2N)nc1Nc1cccc2[nH]ncc12 [Example 2.5, 3-((1R,2S)-2-Amino-cyclohexylamino)-5-(1H-indazol-4-ylamino)-[1,2,4]triazine-6-carboxylic acid amide] | 106 nM | 671 nM | 30 nM |  |  | 
NC(=O)c1nnc(N[C@@H]2CCCC[C@@H]2N)nc1Nc1cc(F)cc2cc[nH]c12 [Example 2.6, 3-((1R,2S)-2-Amino-cyclohexylamino)-5-(5-fluoro-1H-indol-7-ylamino)-[1,2,4]triazine-6-carboxylic acid amide] | 37 nM | 562 nM | 4.6 nM |  |  | 
Cn1ccc2c(Nc3nc(N[C@@H]4CCCC[C@@H]4N)cnc3C(N)=O)cccc21 [Example 3.1, 5-((1R,2S)-2-Amino-cyclohexylamino)-3-(1-methyl-1H-indol-4-ylamino)-pyrazine-2-carboxylic acid amide] | 25 nM |  | 0.5 nM |  |  | 
NC(=O)c1ncc(N[C@@H]2CCCC[C@@H]2N)nc1Nc1cccc2cc[nH]c12 [Example 4.1, 5-((1R,2S)-2-Amino-cyclohexylamino)-3-(1H-indol-7-ylamino)-pyrazine-2-carboxylic acid amide] | 28 nM | 311 nM | 2.7 nM |  |  | 
Cc1c[nH]c2c(Nc3nc(N[C@@H]4CCCC[C@@H]4N)cnc3C(N)=O)cccc12 [Example 4.2, 5-((1R,2S)-2-Amino-cyclohexylamino)-3-(3-methyl-1H-indol-7-ylamino)-pyrazine-2-carboxylic acid amide] | 36 nM | 596 nM | 1 nM |  |  | 
